In experiment [1] the target is T1, recombinant full-length human GSK3β (Homo sapiens, UniProt P49841).
T1 construct: recombinant full-length human GSK3β (Upstate); purchased Upstate
As to the kind of experiment: Luciferase-coupled cell-free GSK3β kinase assay. The class given is biochemical. In short, it runs like this:
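GSK3β, 10-25 ng, was incubated with compound for 1 h at 30° C in MOPS pH 7.0 buffer containing 62.5 μM phospho-glycogen synthase peptide-2 and 5 μM ATP. Remaining ATP was read by KinaseGlo luminescence, and IC50 was fitted from % inhibition relative to maximal inhibition.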

In another experiment the test system is E. coli, ATCC8739. Briefly: Antibacterial activity (MIC), E. coli. Particulars: Escherichia coli. In kind it is cell-based. The source says: (§1) As used herein, a minimum inhibitory concentration (MIC) for bacterial growth assay is the lowest level of a compound needed to cause an inhibition to bacterial growth in culture medium. In certain embodiments, the antibacterial activity of compounds herein, measured as MIC.
(§2) In certain embodiments, GSK3 inhibitors provided herein are substantially free of antibacterial activity or having very low antibacterial activity. The antibacterial activity can be measured by methods known in the art by estimating a minimum inhibitory concentration (MIC) for test compounds. A MIC is the lowest level of a compound needed to cause an inhibition to bacterial growth in a culture medium. […] (Clinical and Laboratory Standards Institute. Methods for Dilution Antimicrobial Susceptibility Tests for Bacteria That Grow Aerobically; Approved Standard-Sixth Edition: CLSI document […]. CLSI, Wayne, Pa. (2003))
(§3) Antibacterial activity for E. coli, ATCC8739 andS. aureus Smith expressed as MIC (μM) is provided as follows: […]

A further experiment has as its system S. aureus Smith. As to the kind of experiment: Antibacterial activity (MIC), S. aureus. Particulars: Staphylococcus aureus. In kind it is cell-based.
From the text: as §1, §2, §3

[2] abbreviates: ATCC8739, Table 2, E. coli ATCC8739, read-out: Antimicrobial MIC [μM] E. Coli.
Where [3] appears, read: Table 2, S. aureus Smith, read-out: Antimicrobial MIC [μM] S. aureus.
Where [4] appears, read: ATCC8739, Table 1, E. coli ATCC8739, read-out: Antibacterial MIC (μM) E.Coli.
Where [5] appears, read: Table 1, read-out: Antibacterial MIC (μM) S. aureus Smith.
[6] abbreviates: ATCC8739, read-out: Antibacterial MIC (μM) E.Coli.
Setting [7] is: read-out: Antibacterial MIC (μM) S. aureus Smith.

SMILES strings stand for the structures. ≈ marks a conversion by molar mass, not a printed value. Read-outs that look alike come from different tables or passages of the source.

These results are taken from US8063221B2, “Aminoquinolones as GSK-3 inhibitors” (Kyorin Pharmaceutical Co., Ltd., priority 2006, dated 2011).

The term IC50 denotes the point on the concentration scale where inhibition reaches its midpoint. The MIC is the lowest concentration that inhibits growth of the organism.

T1 sequence (P49841 whole entry): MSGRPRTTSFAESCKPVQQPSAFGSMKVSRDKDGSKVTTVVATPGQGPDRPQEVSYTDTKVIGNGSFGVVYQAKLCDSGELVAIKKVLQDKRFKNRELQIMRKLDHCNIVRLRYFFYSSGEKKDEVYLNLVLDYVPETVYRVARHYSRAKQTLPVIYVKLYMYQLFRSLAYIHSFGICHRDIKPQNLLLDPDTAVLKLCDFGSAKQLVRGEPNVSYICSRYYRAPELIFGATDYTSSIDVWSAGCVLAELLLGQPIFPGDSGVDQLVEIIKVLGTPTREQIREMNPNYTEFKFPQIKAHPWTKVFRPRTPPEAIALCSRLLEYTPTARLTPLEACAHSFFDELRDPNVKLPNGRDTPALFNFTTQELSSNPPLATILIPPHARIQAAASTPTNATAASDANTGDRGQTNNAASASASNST

Regarding `CC1(C)COc2c(NCCCn3cnc4ccccc43)c(F)c(N)c3c(=O)c(C(=O)O)cn(c23)C1` [compound 52], the half-inhibitory concentration (IC50) in experiment [1] (Table 2) fell in the range of 100 to 500 nM. Moreover, the MIC with E. coli, ATCC8739 (setting [2]) fell in the range of 0.5 to 10 µM (≈ 0.24 to 4.8 µg/mL); with S. aureus Smith (setting [3]), 0.5 to 10 µM (≈ 0.24 to 4.8 µg/mL).
Take `Nc1c(F)c(NCCCc2ccccc2)c(F)c2c1c(=O)c(C(=O)O)cn2C1CCCC1` [compound 52]: the IC50 in experiment [1] (Table 1) is less than 100 nM. In addition, the MIC in the experiment with E. coli, ATCC8739 (setting [4]) is 10 to 50 µM (≈ 4.41 to 22.1 µg/mL); in the experiment on S. aureus Smith (setting [5]) it was 10 to 50 µM (≈ 4.41 to 22.1 µg/mL).
Consider `Nc1c(F)c(NCCc2ccncc2)c(F)c2c1c(=O)c(C(=O)O)cn2C1CCCC1` [compound 53], for which the IC50 in experiment [1] (Table 1) was 100 to 500 nM. The MIC with E. coli, ATCC8739 (setting [4]) lay in the range of 10 to 50 µM (≈ 4.28 to 21.4 µg/mL); in the experiment on S. aureus Smith (setting [5]) it was 10 to 50 µM (≈ 4.28 to 21.4 µg/mL).
Turning to `CC(C)[C@H]1COc2c(NCCCn3ccnc3)c(F)c(N)c3c(=O)c(C(=O)O)cn1c23` [compound 54], the IC50 in experiment [1] (Table 2) was less than 100 nM. Further, the MIC in the experiment on E. coli, ATCC8739 (setting [2]) is more than 50 µM; with S. aureus Smith (setting [3]), 10 to 50 µM (≈ 4.29 to 21.5 µg/mL).
Turning to `Nc1c(F)c(NCCCn2ccnc2)c(F)c2c1c(=O)c(C(=O)O)cn2C1CCCC1` [compound 54], in experiment [1] (Table 1), the IC50 was less than 100 nM. Moreover, the MIC was more than 50 µM in the experiment with E. coli, ATCC8739 (setting [4]) and more than 50 µM in the experiment with S. aureus Smith (setting [5]).
In the case of `CC(C)OCCCNc1c(F)c(N)c2c(=O)c(C(=O)O)cn(C3CCCC3)c2c1F` [compound 55], in experiment [1] (Table 1), the IC50 was less than 100 nM. Besides, the MIC was 10 to 50 µM (≈ 4.23 to 21.2 µg/mL) with E. coli, ATCC8739 (setting [6]) and 10 to 50 µM (≈ 4.23 to 21.2 µg/mL) with S. aureus Smith (setting [7]).
`CC1(C)Cn2cc(C(=O)O)c(=O)c3c(N)c(F)c(NCCCn4cnc5ccccc54)c(c32)O1` [compound 56]: in experiment [1] (Table 2), the IC50 was 100 to 500 nM. In addition, the MIC in the experiment on E. coli, ATCC8739 (setting [2]) lay within 10 to 50 µM (≈ 4.65 to 23.3 µg/mL); in the experiment with S. aureus Smith (setting [3]) it was 10 to 50 µM (≈ 4.65 to 23.3 µg/mL).
Consider `Nc1c(F)c(NCCNc2cccc3ccccc23)c(F)c2c1c(=O)c(C(=O)O)cn2C1CCCC1` [compound 56], for which the IC50 in experiment [1] (Table 1) is less than 100 nM. The MIC in the experiment with E. coli, ATCC8739 (setting [4]) lay in the range of 10 to 50 µM (≈ 4.93 to 24.6 µg/mL); with S. aureus Smith (setting [5]), 10 to 50 µM (≈ 4.93 to 24.6 µg/mL).
For the compound `Nc1c(F)c(NCCCCc2ccccc2)c(F)c2c1c(=O)ccn2C1CC1` [compound 57], in experiment [1] (Table 1), the IC50 lay within 500 to 1000 nM. Moreover, the MIC fell in the range of 10 to 50 µM (≈ 3.83 to 19.2 µg/mL) with E. coli, ATCC8739 (setting [4]) and 10 to 50 µM (≈ 3.83 to 19.2 µg/mL) in the experiment with S. aureus Smith (setting [5]).
Take `CC1(C)Cn2cc(C(=O)O)c(=O)c3c(N)c(F)c(NCCCn4ccnc4)c(c32)O1` [compound 58]: the IC50 in experiment [1] (Table 2) was 100 to 500 nM. Also, the MIC with E. coli, ATCC8739 (setting [2]) is more than 50 µM; in the experiment on S. aureus Smith (setting [3]), more than 50 µM.
Take `Nc1c(F)c(NCCCc2ccccc2)c(F)c2c1c(=O)ccn2CCc1ccccc1` [compound 58]: the 50% inhibitory concentration (IC50) in experiment [1] (Table 1) lay within 100 to 500 nM. Also, the MIC in the experiment with E. coli, ATCC8739 (setting [4]) was in the range of 10 to 50 µM (≈ 4.34 to 21.7 µg/mL); with S. aureus Smith (setting [5]) it was 10 to 50 µM (≈ 4.34 to 21.7 µg/mL).
Regarding `CC1(C)Cn2cc(C(=O)O)c(=O)c3c(N)c(F)c(NCCCc4ccccc4)c(c32)O1` [compound 59], the IC50 in experiment [1] (Table 2) lay within 100 to 500 nM. In addition, the MIC in the experiment on E. coli, ATCC8739 (setting [2]) lay within 10 to 50 µM (≈ 4.25 to 21.3 µg/mL); with S. aureus Smith (setting [3]) it was 10 to 50 µM (≈ 4.25 to 21.3 µg/mL).
As for `Nc1c(F)c(NCCc2ccncc2)c(F)c2c1c(=O)ccn2CCc1ccccc1` [compound 59], the IC50 in experiment [1] (Table 1) lay in the range of 100 to 500 nM. Further, the MIC in the experiment with E. coli, ATCC8739 (setting [4]) was more than 50 µM; in the experiment with S. aureus Smith (setting [5]), more than 50 µM.
On to `CC(C)OCCCNc1c(F)c(N)c2c(=O)ccn(CCc3ccccc3)c2c1F` [compound 60], for which, in experiment [1] (Table 1), the IC50 was 500 to 1000 nM. Besides, the MIC with E. coli, ATCC8739 (setting [4]) lay in the range of 10 to 50 µM (≈ 4.15 to 20.8 µg/mL); with S. aureus Smith (setting [5]), 10 to 50 µM (≈ 4.15 to 20.8 µg/mL).
As for `CC(C)[C@H]1COc2c(NCCNc3ccccn3)c(F)c(N)c3c(=O)c(C(=O)O)cn1c23` [compound 60], the IC50 in experiment [1] (Table 2) was less than 100 nM. Moreover, the MIC in the experiment with E. coli, ATCC8739 (setting [2]) was in the range of 10 to 50 µM (≈ 4.41 to 22.1 µg/mL); in the experiment on S. aureus Smith (setting [3]), 10 to 50 µM (≈ 4.41 to 22.1 µg/mL).
For `Nc1c(F)c(NCCCn2ccnc2)c(F)c2c1c(=O)c(C(=O)O)cn2CCCn1ccnc1` [compound 61], the IC50 in experiment [1] (Table 1) lay in the range of 100 to 500 nM. Also, the MIC in the experiment with E. coli, ATCC8739 (setting [6]) is more than 50 µM; in the experiment on S. aureus Smith (setting [7]) it was more than 50 µM.
Turning to `CC(C)[C@@H]1COc2c(NCCNc3ccccn3)c(F)c(N)c3c(=O)c(C(=O)O)cn1c23` [compound 62], the 50% inhibitory concentration (IC50) in experiment [1] (Table 2) is less than 100 nM. Besides, the MIC was in the range of 0.5 to 10 µM (≈ 0.221 to 4.41 µg/mL) in the experiment on E. coli, ATCC8739 (setting [2]) and 0.5 to 10 µM (≈ 0.221 to 4.41 µg/mL) with S. aureus Smith (setting [3]).
Consider `CC(C)[C@@H]1COc2c(NCCCn3ccnc3)c(F)c(N)c3c(=O)c(C(=O)O)cn1c23` [compound 63], for which, in experiment [1] (Table 2), the IC50 was less than 100 nM. For the same compound, the minimum inhibitory concentration (MIC) in the experiment on E. coli, ATCC8739 (setting [2]) was more than 50 µM; in the experiment on S. aureus Smith (setting [3]), 10 to 50 µM (≈ 4.29 to 21.5 µg/mL).
Turning to `Nc1c(F)c(NCCNc2ccccn2)c(F)c2c1c(=O)ccn2CCc1ccccc1` [compound 63], the IC50 in experiment [1] (Table 1) is 100 to 500 nM. Further, the MIC with E. coli, ATCC8739 (setting [4]) lay within 10 to 50 µM (≈ 4.35 to 21.8 µg/mL); in the experiment on S. aureus Smith (setting [5]) it was 10 to 50 µM (≈ 4.35 to 21.8 µg/mL).
Take `Nc1c(F)c(NCCNc2cccc3ccccc23)c(F)c2c1c(=O)ccn2CCc1ccccc1` [compound 64]: the IC50 in experiment [1] (Table 1) lay in the range of 100 to 500 nM. Further, the MIC fell in the range of 10 to 50 µM (≈ 4.85 to 24.2 µg/mL) in the experiment on E. coli, ATCC8739 (setting [4]) and 10 to 50 µM (≈ 4.85 to 24.2 µg/mL) in the experiment on S. aureus Smith (setting [5]).
